Results published in patent US20260285850A1, “SUBSTITUTED OXAZOLIDINONES AND IMIDAZOLINONES AS HERBICIDES” (FMC CORPORATION, priority 2023, published 2026).

Assays:
Format in all cases: in vivo
[1] = tested on: barnyardgrass (Echinochloa crus-galli); assay: Test A preemergence soil spray, visual injury rating 0-100; conditions: 10 days, 0 = no effect, 100 = complete control
How it was run: (§1)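 Directed preemergence spray onto seeded soil or postemergence spray onto 2-10 cm plants (loam plus sand); compound carried in surfactant-containing non-phytotoxic solvent. Injury rated by eye after 10 d greenhouse growth; 0 = no effect, 100 = complete control.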

[2] = tested on: blackgrass (Alopecurus myosuroides); assay: as above; conditions: 10 days, 0 = no effect, 100 = complete control
How it was run: as §1

corn (Zea mays) [3] = assay: as above; conditions: 10 days, 0 = no effect, 100 = complete control
How it was run: as §1

[4] = tested on: green foxtail (Setaria viridis); assay: as above; conditions: 10 days, 0 = no effect, 100 = complete control
How it was run: as §1

kochia (Bassia scoparia) [5] = assay: as above; conditions: 10 days, 0 = no effect, 100 = complete control
How it was run: as §1

[6] = tested on: oat, wild (wild oat, Avena fatua); assay: as above; conditions: 10 days, 0 = no effect, 100 = complete control
How it was run: as §1

[7] = tested on: palmer (palmer amaranth, palmer pigweed, Amaranthus palmeri); assay: as above; conditions: 10 days, 0 = no effect, 100 = complete control
How it was run: as §1

[8] = tested on: ragweed (common ragweed, Ambrosia artemisiifolia); assay: as above; conditions: 10 days, 0 = no effect, 100 = complete control
How it was run: as §1

[9] = tested on: ryegrass, Italian (italian ryegrass, Lolium multiflorum); assay: as above; conditions: 10 days, 0 = no effect, 100 = complete control
How it was run: as §1

soybean (Glycine max) [10] = assay: as above; conditions: 10 days, 0 = no effect, 100 = complete control
How it was run: as §1

[11] = tested on: wheat (Triticum aestivum); assay: as above; conditions: 10 days, 0 = no effect, 100 = complete control
How it was run: as §1

[12] = tested on: barnyardgrass (Echinochloa crus-galli); assay: Test A postemergence application, visual injury rating 0-100; conditions: 10 days
How it was run: as §1

[13] = tested on: blackgrass (Alopecurus myosuroides); assay: as above; conditions: 10 days
How it was run: as §1

corn (Zea mays) [14] = assay: as above; conditions: 10 days
How it was run: as §1

[15] = tested on: galium (catchweed bedstraw, Galium aparine); assay: as above; conditions: 10 days
How it was run: as §1

[16] = tested on: green foxtail (Setaria viridis); assay: as above; conditions: 10 days
How it was run: as §1

[17] = tested on: horseweed (Erigeron canadensis); assay: as above; conditions: 10 days
How it was run: as §1

kochia (Bassia scoparia) [18] = assay: as above; conditions: 10 days
How it was run: as §1

[19] = tested on: oat, wild (wild oat, Avena fatua); assay: as above; conditions: 10 days
How it was run: as §1

[20] = tested on: palmer (palmer amaranth, palmer pigweed, Amaranthus palmeri); assay: as above; conditions: 10 days
How it was run: as §1

[21] = tested on: ragweed (common ragweed, Ambrosia artemisiifolia); assay: as above; conditions: 10 days
How it was run: as §1

[22] = tested on: ryegrass, Italian (italian ryegrass, Lolium multiflorum); assay: as above; conditions: 10 days
How it was run: as §1

soybean (Glycine max) [23] = assay: as above; conditions: 10 days
How it was run: as §1

[24] = tested on: wheat (Triticum aestivum); assay: as above; conditions: 10 days
How it was run: as §1

[25] = tested on: barnyardgrass (Echinochloa crusgalli); assay: Test B flooded paddy test, visual plant response rating 0-100; conditions: 250 g ai/ha, Flood, applied to paddy water, evaluated after 13 days
How it was run: (§2)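 Visual evaluation after 13 days. Water-applied treatment, 3 cm flood depth held constant, plants at 2-leaf stage at treatment.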

[26] = tested on: ducksalad (Heteranthera limosa); assay: as above; conditions: 250 g ai/ha, Flood, applied to paddy water, evaluated after 13 days
How it was run: as §2

rice (Oryza sativa) = assay: as above; conditions: 250 g ai/ha, Flood, applied to paddy water, evaluated after 13 days
How it was run: as §2

[27] = tested on: sedge, umbrella (small-flower umbrella sedge, Cyperus difformis); assay: as above; conditions: 250 g ai/ha, Flood, applied to paddy water, evaluated after 13 days
How it was run: as §2

[28] = 31 g ai/ha, postemergence, 0 = no effect, 100 = complete control
[29] = Postemergence, 125 g ai/ha, 0 is no effect, 100 is complete control

CSCCOC(=O)C1=CCC(NC(=O)C2(C)CN(c3cc(F)cc(F)c3)C(=O)O2)C1 (stereo not shown) [Compound 23]
Barnyardgrass plant response rating (0-100) ([1]; 31 g ai/ha): 60 | Barnyardgrass plant response rating (0 to 100 scale) ([1]; 125 g ai/ha): 100 | Blackgrass plant response rating (0-100) ([2]; 31 g ai/ha): 80 | Blackgrass plant response rating (0 to 100 scale) ([2]; 125 g ai/ha): 90 | Corn plant response rating (0-100) (corn (Zea mays) [3]; 31 g ai/ha): 30 | Corn plant response rating (0 to 100 scale) (corn (Zea mays) [3]; 125 g ai/ha): 80 | Foxtail, Green plant response rating (0-100) ([4]; 31 g ai/ha): 70 | Foxtail, Green plant response rating (0 to 100 scale) ([4]; 125 g ai/ha): 100 | Kochia plant response rating (0-100) (kochia (Bassia scoparia) [5]; 31 g ai/ha): 0 | Kochia plant response rating (0 to 100 scale) (kochia (Bassia scoparia) [5]; 125 g ai/ha): 90 | Oat, Wild plant response rating (0-100) ([6]; 31 g ai/ha): 20 | Oat, Wild plant response rating (0 to 100 scale) ([6]; 125 g ai/ha): 60 | Amaranth, Palmer plant response rating (0-100) ([7]; 31 g ai/ha): 30 | Amaranth, Palmer plant response rating (0 to 100 scale) ([7]; 125 g ai/ha): 90 | Ragweed plant response rating (0-100) ([8]; 31 g ai/ha): 0 | Ragweed plant response rating (0 to 100 scale) ([8]; 125 g ai/ha): 70 | Ryegrass, Italian plant response rating (0-100) ([9]; 31 g ai/ha): 80 | Ryegrass, Italian plant response rating (0 to 100 scale) ([9]; 125 g ai/ha): 90 | Soybean plant response rating (0-100) (soybean (Glycine max) [10]; 31 g ai/ha): 10 | Soybean plant response rating (0 to 100 scale) (soybean (Glycine max) [10]; 125 g ai/ha): 70 | Wheat plant response rating (0-100) ([11]; 31 g ai/ha): 80 | Wheat plant response rating (0 to 100 scale) ([11]; 125 g ai/ha): 90 | Barnyardgrass plant response rating (0-100) [12, 28]: 100 | Barnyardgrass plant response rating (0 to 100 scale) [12, 29]: 100 | Blackgrass plant response rating (0-100) [13, 28]: 90 | Blackgrass plant response rating (0 to 100 scale) [13, 29]: 100 | Corn plant response rating (0-100) (corn (Zea mays) [14]; [28]): 100 | Corn plant response rating (0 to 100 scale) (corn (Zea mays) [14]; [29]): 100 | Galium plant response rating (0-100) [15, 28]: 80 | Galium plant response rating (0 to 100 scale) [15, 29]: 90 | Foxtail, Green plant response rating (0-100) [16, 28]: 90 | Foxtail, Green plant response rating (0 to 100 scale) [16, 29]: 90 | Horseweed plant response rating (0-100) [17, 28]: 80 | Horseweed plant response rating (0 to 100 scale) [17, 29]: 90 | Kochia plant response rating (0-100) (kochia (Bassia scoparia) [18]; [28]): 80 | Kochia plant response rating (0 to 100 scale) (kochia (Bassia scoparia) [18]; [29]): 90 | Oat, Wild plant response rating (0-100) [19, 28]: 90 | Oat, Wild plant response rating (0 to 100 scale) [19, 29]: 100 | Amaranth, Palmer plant response rating (0-100) [20, 28]: 80 | Amaranth, Palmer / Pigweed, Palmer plant response rating (0 to 100 scale) [20, 29]: 90 | Ragweed plant response rating (0-100) [21, 28]: 60 | Ragweed plant response rating (0 to 100 scale) [21, 29]: 70 | Ryegrass, Italian plant response rating (0-100) [22, 28]: 80 | Ryegrass, Italian plant response rating (0 to 100 scale) [22, 29]: 70 | Soybean plant response rating (0-100) (soybean (Glycine max) [23]; [28]): 80 | Soybean plant response rating (0 to 100 scale) (soybean (Glycine max) [23]; [29]): 90 | Wheat plant response rating (0-100) [24, 28]: 90 | Wheat plant response rating (0 to 100 scale) [24, 29]: 90 | Plant response rating, Barnyardgrass (0 to 100 scale, 0 is no effect and 100 is complete control) [25]: 95 | Plant response rating, Ducksalad (0 to 100 scale, 0 is no effect and 100 is complete control) [26]: 70 | Plant response rating, Rice (0 to 100 scale, 0 is no effect and 100 is complete control) (rice (Oryza sativa)): 85 | Plant response rating, Sedge, Umbrella (0 to 100 scale, 0 is no effect and 100 is complete control) [27]: 86
